Where two headings read alike, the source gives them in different places.

This is an account of results in US4378344A, “Method and apparatus for performing multiple, simultaneous in vitro diagnostic tests using a solid phase system” (priority 1979, dated 1983).

Test [1] concerns anti-T4. Briefly: simultaneous assay: 125I-thyroxin bound to anti-T4 coated stick (Example 6). Type of test: binding, rabbit. How it is done:
(§1) Digoxin and thyroxin were utilized as the antigens. 1.1 ml of 0.01 M PBS at pH 7.4 and also containing 5 mg/ml thimersol was added to the appropriate tubes. 50 μl of a digoxin solution and 50 μl of a T4 solution were added to each tube.
(§2) The following series of assays were conducted.
(B) uncoated tube and anti-T4 coated stick
(§3) (D) anti-digoxin coated tube and anti-T4 coated stick.
(§4) The remainder of the values are based on these two values.

The test system of test [2] is anti-T4. Briefly: simultaneous assay in clinical serum sample: 125I-thyroxin bound to anti-T4 coated stick (Example 7). It is filed as binding, rabbit.
Test [3] concerns anti-digoxin. Briefly: simultaneous assay: 125I-digoxin bound to anti-digoxin coated tube (Example 6). Type of test: binding, rabbit. On the procedure:
as §1, §2
(A) anti-digoxin coated tube;
(C) anti-digoxin coated tube and uncoated stick; and,
as §3, §4

In test [4] the test system is anti-digoxin. The note with it: clinical sample. On the procedure: The same series of assays were conducted as described in Example 6 and expressed in the same manner.

With `N[C@@H](Cc1cc(I)c(Oc2cc(I)c(O)c(I)c2)c(I)c1)C(=O)O` [T4, thyroxin], the “T4 binding to the anti-T4 coated stick” value with anti-T4 [1] (when an anti-digoxin coated tube is also present) is “no significant difference”; with anti-T4 [1] (when digoxin, 125I-digoxin or both are present), “no significant difference”.

Consider `N[C@@H](Cc1cc(I)c(Oc2cc(I)c(O)c([125I])c2)c(I)c1)C(=O)O` [^125 I-T4, ^125 I-Thyroxin], for which the “% ^125 I-Thyroxin Bound” value in the test on anti-T4 [1] (stick 2 (digoxin 0, T4 0 ng/ml; no 125I-digoxin), series B, uncoated tube, set as 100%) was 100%; in the test on anti-T4 [1] (stick 2 (digoxin 0, T4 0 ng/ml; no 125I-digoxin), series D, anti-digoxin tube), 96%; in the test on anti-T4 [1] (stick 3 (digoxin 0, T4 0 ng/ml; with 125I-digoxin), series B, uncoated tube), 106%; in the test on anti-T4 [1] (stick 3 (digoxin 0, T4 0 ng/ml; with 125I-digoxin), series D, anti-digoxin tube), 106%; in the test on anti-T4 [1] (stick 5 (digoxin 0, T4 30 ng/ml; no 125I-digoxin), series B, uncoated tube) it was 81%; with anti-T4 [1] (stick 5 (digoxin 0, T4 30 ng/ml; no 125I-digoxin), series D, anti-digoxin tube), 79%. Further, the “% ^125 I-Thyroxin Bound” value in the test on anti-T4 [1] (stick 6 (digoxin 0, T4 30 ng/ml; with 125I-digoxin), series B, uncoated tube) was 92%; with anti-T4 [1] (stick 6 (digoxin 0, T4 30 ng/ml; with 125I-digoxin), series D, anti-digoxin tube) it was 95%; with anti-T4 [1] (stick 8 (digoxin 4, T4 0 ng/ml; no 125I-digoxin), series B, uncoated tube) it was 101%; with anti-T4 [1] (stick 8 (digoxin 4, T4 0 ng/ml; no 125I-digoxin), series D, anti-digoxin tube) it was 100%; in the test on anti-T4 [1] (stick 9 (digoxin 4, T4 0 ng/ml; with 125I-digoxin), series B, uncoated tube) it was 113%; in the test on anti-T4 [1] (stick 9 (digoxin 4, T4 0 ng/ml; with 125I-digoxin), series D, anti-digoxin tube), 108%. Moreover, the “% ^125 I-Thyroxin Bound” value in the test on anti-T4 [1] (stick 11 (digoxin 4, T4 30 ng/ml; no 125I-digoxin), series B, uncoated tube) came to 82%; in the test with anti-T4 [1] (stick 11 (digoxin 4, T4 30 ng/ml; no 125I-digoxin), series D, anti-digoxin tube), 81%; in the test on anti-T4 [1] (stick 12 (digoxin 4, T4 30 ng/ml; with 125I-digoxin), series B, uncoated tube), 92%; with anti-T4 [1] (stick 12 (digoxin 4, T4 30 ng/ml; with 125I-digoxin), series D, anti-digoxin tube), 89%; in the test with anti-T4 [2] (stick 2 (no 125I-digoxin), series B, uncoated tube, set as 100%), 100%; in the test with anti-T4 [2] (stick 2 (no 125I-digoxin), series D, anti-digoxin tube) it was 102%. Besides, the “% ^125 I-Thyroxin Bound” value with anti-T4 [2] (stick 3 (with 125I-digoxin), series B, uncoated tube) is given as 146%; in the test on anti-T4 [2] (stick 3 (with 125I-digoxin), series D, anti-digoxin tube), 143%.

Regarding `C[C@H]1O[C@@H](O[C@H]2[C@@H](O)C[C@H](O[C@H]3[C@@H](O)C[C@H](O[C@H]4CC[C@@]5(C)[C@H](CC[C@@H]6[C@@H]5C[C@@H](O)[C@]5(C)[C@@H](C7=CC(=O)OC7)CC[C@]65O)C4)O[C@@H]3C)O[C@@H]2C)C[C@H](O)[C@@H]1O` [digoxin], the “digoxin binding to the anti-digoxin coated tube” value with anti-digoxin [3] (when T4, 125I-T4 or both are present) is given as “no significant difference”; in the test on anti-digoxin [3] (when an uncoated stick or an anti-T4 coated stick is also present) it was “no significant difference”.

Take ^125 I-Digoxin: the “% ^125 I-Digoxin Bound” value with anti-digoxin [3] (tube 1 (digoxin 0, T4 0 ng/ml; no 125I-T4), series A, no stick, set as 100%) is 100%; in the test with anti-digoxin [3] (tube 1 (digoxin 0, T4 0 ng/ml; no 125I-T4), series C, uncoated stick), 118%; with anti-digoxin [3] (tube 1 (digoxin 0, T4 0 ng/ml; no 125I-T4), series D, anti-T4 stick), 126%; with anti-digoxin [3] (tube 3 (digoxin 0, T4 0 ng/ml; with 125I-T4), series A, no stick) it was 98%; in the test with anti-digoxin [3] (tube 3 (digoxin 0, T4 0 ng/ml; with 125I-T4), series C, uncoated stick) it was 109%; in the test on anti-digoxin [3] (tube 3 (digoxin 0, T4 0 ng/ml; with 125I-T4), series D, anti-T4 stick) it was 121%. In addition, the “% ^125 I-Digoxin Bound” value in the test with anti-digoxin [3] (tube 4 (digoxin 0, T4 30 ng/ml; no 125I-T4), series A, no stick) is 97%; in the test with anti-digoxin [3] (tube 4 (digoxin 0, T4 30 ng/ml; no 125I-T4), series C, uncoated stick), 111%; with anti-digoxin [3] (tube 4 (digoxin 0, T4 30 ng/ml; no 125I-T4), series D, anti-T4 stick), 109%; with anti-digoxin [3] (tube 6 (digoxin 0, T4 30 ng/ml; with 125I-T4), series A, no stick), 100%; in the test with anti-digoxin [3] (tube 6 (digoxin 0, T4 30 ng/ml; with 125I-T4), series C, uncoated stick) it was 104%; in the test on anti-digoxin [3] (tube 6 (digoxin 0, T4 30 ng/ml; with 125I-T4), series D, anti-T4 stick), 110%. The “% ^125 I-Digoxin Bound” value stood at 66% in the test with anti-digoxin [3] (tube 7 (digoxin 4, T4 0 ng/ml; no 125I-T4), series A, no stick); 76% in the test on anti-digoxin [3] (tube 7 (digoxin 4, T4 0 ng/ml; no 125I-T4), series C, uncoated stick); 68% in the test on anti-digoxin [3] (tube 7 (digoxin 4, T4 0 ng/ml; no 125I-T4), series D, anti-T4 stick); 69% with anti-digoxin [3] (tube 9 (digoxin 4, T4 0 ng/ml; with 125I-T4), series A, no stick); 77% in the test on anti-digoxin [3] (tube 9 (digoxin 4, T4 0 ng/ml; with 125I-T4), series C, uncoated stick); 70% with anti-digoxin [3] (tube 9 (digoxin 4, T4 0 ng/ml; with 125I-T4), series D, anti-T4 stick). The “% ^125 I-Digoxin Bound” value in the test with anti-digoxin [3] (tube 10 (digoxin 4, T4 30 ng/ml; no 125I-T4), series A, no stick) was 62%; with anti-digoxin [3] (tube 10 (digoxin 4, T4 30 ng/ml; no 125I-T4), series C, uncoated stick), 76%; in the test on anti-digoxin [3] (tube 10 (digoxin 4, T4 30 ng/ml; no 125I-T4), series D, anti-T4 stick) it was 69%; in the test on anti-digoxin [3] (tube 12 (digoxin 4, T4 30 ng/ml; with 125I-T4), series A, no stick), 63%; with anti-digoxin [3] (tube 12 (digoxin 4, T4 30 ng/ml; with 125I-T4), series C, uncoated stick) it was 73%; in the test with anti-digoxin [3] (tube 12 (digoxin 4, T4 30 ng/ml; with 125I-T4), series D, anti-T4 stick) it was 68%. The “% ^125 I-Digoxin Bound” value in the test with anti-digoxin [4] (tube 1 (no 125I-T4), series A, no stick, set as 100%) was found to be 100%; in the test on anti-digoxin [4] (tube 1 (no 125I-T4), series C, uncoated stick), 95%; in the test with anti-digoxin [4] (tube 1 (no 125I-T4), series D, anti-T4 stick), 114%; in the test with anti-digoxin [4] (tube 3 (with 125I-T4), series A, no stick), 98%; in the test on anti-digoxin [4] (tube 3 (with 125I-T4), series C, uncoated stick) it was 135%; in the test on anti-digoxin [4] (tube 3 (with 125I-T4), series D, anti-T4 stick), 116%.
